As usually defined, the EC50 is the concentration needed to bring the measured effect to its halfway point. Usually AC50 stands for the midpoint of the concentration-response curve, whichever way the signal moves. By IC50 is commonly meant the point on the concentration scale where inhibition reaches its midpoint.

The record followed here is ChEMBL document CHEMBL1201862, “PubChem BioAssay data set” (2004).

Structures are written as SMILES. Values joined by “and” are separate entries in the source; they are usually repeats but may differ in a detail not shown here. Identical values can stand only once. Active and inactive are the calls of the source. Some results are limits rather than exact numbers.

A short description of experiment [1]: inhibitors of firefly luciferase expression or activity, dose response, H4 neuroglioma cells, luminescence (AID 1990). It counts as functional, cell-based.
The nature of experiment [2]: Luminescence Cell-Based Dose Response HTS to Identify Inhibitors of 5'UTR Stem-Loop Driven Prion Protein mRNA Translation in H4 Neuroglioblastoma Cells. [Related pubchem assays: 1827 (Project Summary), 1813 (Primary HTS)]. Type of experiment: functional.
Experiment [3] in a line: inhibitors of SNCA 5'UTR-driven reporter translation, confirmation, H4 neuroglioma cells, luminescence (AID 1988). Type of experiment: functional, cell-based.
The next experiment has as its target Cytochrome P450 3A4 (Homo sapiens, UniProt P08684).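 Further: CYP3A4 tested as one member of a cytochrome P450 panel screen.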
For experiment [4], the system named is Streptococcus sp. 'group A'. Put plainly: growth inhibition of control SK(-) GAS strain, dose response, counter-screen for streptokinase expression inhibitor project, luminescence, kanamycin, BacTiterGlo, confirmation (AID 1900). It counts as functional, organism-based. A general note: A counterscreen serves to expose hits that act by an unwanted route or on another target.

The target of another experiment is T1, Streptokinase A (Streptococcus pyogenes serotype M1, UniProt P10520).
T1 sequence (P10520 whole entry): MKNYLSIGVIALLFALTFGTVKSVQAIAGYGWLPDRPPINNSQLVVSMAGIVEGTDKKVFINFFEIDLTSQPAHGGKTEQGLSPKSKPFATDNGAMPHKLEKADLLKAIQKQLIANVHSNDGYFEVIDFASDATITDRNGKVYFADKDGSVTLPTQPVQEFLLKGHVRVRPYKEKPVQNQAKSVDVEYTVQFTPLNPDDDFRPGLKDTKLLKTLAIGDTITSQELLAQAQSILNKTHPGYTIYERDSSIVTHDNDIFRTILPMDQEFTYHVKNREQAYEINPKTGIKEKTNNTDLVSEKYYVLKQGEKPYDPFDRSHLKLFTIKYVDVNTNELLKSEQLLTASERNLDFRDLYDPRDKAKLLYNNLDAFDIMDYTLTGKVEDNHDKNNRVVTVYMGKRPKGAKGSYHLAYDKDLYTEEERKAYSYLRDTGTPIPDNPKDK
Kind of experiment: S. pyogenes streptokinase expression inhibitors, potency, dose response, plasminogen activation absorbance, OD405 (AID 1914).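 Further: secreted streptokinase activity via plasminogen activation per viability signal from cell pellet.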 Type of experiment: functional, Streptococcus pyogenes M1 GAS.

The next experiment has as its system Streptococcus. Put plainly: Group A Streptococcus viability loss, dose response, counter-screen for streptokinase expression inhibitor project, luminescence, BacTiterGlo (AID 1915).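 Further: potency for reduction of bacterial viability or growth.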 It counts as functional, organism-based.
Another experiment has as its target Cytochrome P450 2D6 (Homo sapiens, UniProt P10635).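 Further: CYP2D6 member of a cytochrome P450 panel assay.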
For the next experiment, the system named is H9c2. Kind of experiment: cells. The conditions noted are these: Rattus norvegicus, H9c2, Myocardium. It counts as functional, cell-based.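 Further: confirmatory concentration-response retest of ultra-high-throughput screening hits for modulation of myocardial damage; cell death induced by hydrogen peroxide oxidative stress; compound pretreatment for 60 min then peroxide exposure for 2 h; potency is for protecting the cells against peroxide damage rather than for killing them.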
In another experiment the target is Cytochrome P450 2C19 (Homo sapiens, UniProt P33261). Kind of experiment: Cytochrome panel assay with activity outcomes. Panel member name: p450-cyp2c19 Compounds with AC50 equal or less than 10 uM are considered active. It counts as functional. As to conditions: read-out: AC50.
Cytochrome P450 2C19, sequence (P33261 whole entry): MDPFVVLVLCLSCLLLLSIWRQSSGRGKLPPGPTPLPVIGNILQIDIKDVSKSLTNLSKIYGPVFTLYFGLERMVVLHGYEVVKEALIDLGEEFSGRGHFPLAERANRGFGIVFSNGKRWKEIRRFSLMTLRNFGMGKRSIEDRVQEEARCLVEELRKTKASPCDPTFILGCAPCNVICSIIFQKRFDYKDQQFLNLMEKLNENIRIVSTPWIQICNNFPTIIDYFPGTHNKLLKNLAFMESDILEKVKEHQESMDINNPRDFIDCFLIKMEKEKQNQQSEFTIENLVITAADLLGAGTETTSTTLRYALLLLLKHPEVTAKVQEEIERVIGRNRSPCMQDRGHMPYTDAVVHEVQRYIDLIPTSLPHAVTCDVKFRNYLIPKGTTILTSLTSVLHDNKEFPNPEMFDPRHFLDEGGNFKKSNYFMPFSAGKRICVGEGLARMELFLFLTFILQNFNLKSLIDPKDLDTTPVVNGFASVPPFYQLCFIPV
Experiment [5] deals with T2, Heat shock factor protein 1 (Mus musculus, UniProt P38532).
T2 sequence (P38532 whole entry): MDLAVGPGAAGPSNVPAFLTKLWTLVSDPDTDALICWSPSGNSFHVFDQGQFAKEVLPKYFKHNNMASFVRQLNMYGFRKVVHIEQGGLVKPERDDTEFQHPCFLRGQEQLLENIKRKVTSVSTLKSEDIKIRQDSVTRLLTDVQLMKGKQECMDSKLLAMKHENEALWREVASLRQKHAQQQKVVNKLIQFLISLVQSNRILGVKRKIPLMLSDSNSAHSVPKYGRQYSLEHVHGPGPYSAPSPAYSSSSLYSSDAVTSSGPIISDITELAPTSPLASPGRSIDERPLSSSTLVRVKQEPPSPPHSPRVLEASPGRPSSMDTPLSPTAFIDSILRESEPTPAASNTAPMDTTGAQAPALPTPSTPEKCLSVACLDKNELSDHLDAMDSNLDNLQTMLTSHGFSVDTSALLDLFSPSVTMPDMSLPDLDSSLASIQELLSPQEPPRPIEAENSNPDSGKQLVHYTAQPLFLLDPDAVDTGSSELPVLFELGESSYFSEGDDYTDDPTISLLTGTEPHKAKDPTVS
Put plainly: HSF1 potentiators in luciferase reporter cells, confirmation, cell-based, NIH3T3, luminescence, dose retest (AID 435004).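 Further: stress induced by proteasome inhibitor MG132 added 30 min after compound; luciferase reporter driven by HSF1 response element in NIH3T3 cells; actives raise luminescence as potentiators of the MG132 stress response.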 It counts as functional.

The nature of experiment [6]: inhibitors of intracellular T. cruzi replication, confirmation, NIH3T3 host cells, beta-gal luminescence (AID 2044).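 Further: intracellular parasites grown in NIH/3T3 mouse fibroblasts as host cells; luminescent beta-galactosidase reporter signal from transgenic T. cruzi replicating inside host cells; inhibitors lower the luminescence signal.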 Type of experiment: functional, cell-based.
Experiment [7] is described as follows: cytotoxicity toward NIH3T3 fibroblasts, dose response, counter-screen, cell-based, ATP luminescence, mouse fibroblasts (AID 2010).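 Further: cells exposed to compound for about 90 hours before reading.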 It counts as functional.
A further experiment concerns INS1. Kind of experiment: beta cell apoptosis inhibitors, cytokine rescue, dose response, luminescence, retest (AID 449756).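 Further: cell death triggered by IL-1 beta plus TNF-alpha plus IFN-gamma mixture; protective hits raise ATP signal compared with cytokine alone wells.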 It counts as functional, cell-based. The conditions noted are these: Rattus norvegicus.
The next experiment addresses Cytochrome P450 2C9 (Homo sapiens, UniProt P11712).

Cytochrome P450 3A4, sequence (P08684 whole entry): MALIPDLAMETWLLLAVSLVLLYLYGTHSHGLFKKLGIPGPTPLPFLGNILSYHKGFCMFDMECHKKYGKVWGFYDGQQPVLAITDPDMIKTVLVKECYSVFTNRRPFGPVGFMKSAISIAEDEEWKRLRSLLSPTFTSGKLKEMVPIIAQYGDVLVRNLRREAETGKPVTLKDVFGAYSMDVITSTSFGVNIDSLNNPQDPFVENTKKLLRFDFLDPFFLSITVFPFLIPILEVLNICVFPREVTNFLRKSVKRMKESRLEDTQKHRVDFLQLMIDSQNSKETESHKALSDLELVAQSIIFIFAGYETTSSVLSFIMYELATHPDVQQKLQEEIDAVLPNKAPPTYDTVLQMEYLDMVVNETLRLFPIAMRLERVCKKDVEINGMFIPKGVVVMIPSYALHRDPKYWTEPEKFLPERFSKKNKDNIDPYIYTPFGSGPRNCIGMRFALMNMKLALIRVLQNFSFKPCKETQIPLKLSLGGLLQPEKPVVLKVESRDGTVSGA
Cytochrome P450 2D6, sequence (P10635 whole entry): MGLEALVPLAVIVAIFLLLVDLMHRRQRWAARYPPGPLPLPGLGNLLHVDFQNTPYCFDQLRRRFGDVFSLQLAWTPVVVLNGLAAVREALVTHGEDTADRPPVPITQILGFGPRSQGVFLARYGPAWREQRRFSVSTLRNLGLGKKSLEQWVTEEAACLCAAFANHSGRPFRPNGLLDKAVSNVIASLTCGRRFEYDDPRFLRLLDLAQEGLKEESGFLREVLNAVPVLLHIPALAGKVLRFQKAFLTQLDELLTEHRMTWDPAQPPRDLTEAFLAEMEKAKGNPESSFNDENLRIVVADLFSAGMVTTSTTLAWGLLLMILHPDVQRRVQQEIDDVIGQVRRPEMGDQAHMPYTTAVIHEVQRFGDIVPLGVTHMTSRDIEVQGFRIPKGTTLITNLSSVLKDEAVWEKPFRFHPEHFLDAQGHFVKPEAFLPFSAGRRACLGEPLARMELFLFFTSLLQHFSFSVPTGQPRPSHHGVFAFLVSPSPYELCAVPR
Cytochrome P450 2C9, sequence (P11712 whole entry): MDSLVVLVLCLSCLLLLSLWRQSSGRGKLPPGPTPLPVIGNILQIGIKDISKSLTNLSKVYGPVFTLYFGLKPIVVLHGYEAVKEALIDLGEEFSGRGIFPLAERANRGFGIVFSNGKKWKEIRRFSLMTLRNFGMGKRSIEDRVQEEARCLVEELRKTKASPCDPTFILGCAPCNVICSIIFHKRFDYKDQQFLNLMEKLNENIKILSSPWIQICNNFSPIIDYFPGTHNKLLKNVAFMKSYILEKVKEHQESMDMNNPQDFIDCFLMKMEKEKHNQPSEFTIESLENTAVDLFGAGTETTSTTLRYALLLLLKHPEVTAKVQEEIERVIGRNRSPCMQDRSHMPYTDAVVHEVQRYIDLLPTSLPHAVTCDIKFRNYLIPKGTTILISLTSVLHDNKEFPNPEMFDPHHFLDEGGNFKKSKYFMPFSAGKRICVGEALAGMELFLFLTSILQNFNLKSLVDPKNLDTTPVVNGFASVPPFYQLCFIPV

Consider `COc1ccc(NC(=O)C(=O)NCC(c2ccco2)N2CCc3ccccc32)cc1` (stereo not given), for which the EC50 is 104 µM (active) in experiment [1], 0.127 µM (active) in experiment [2] and 0.11 µM (active) in [3].
For the compound `NCCNS(=O)(=O)c1ccc(N)cc1`, the AC50 at Cytochrome P450 3A4 was 5.01 µM (inconclusive).
With `CC(=O)Nc1nc(NC(=O)/C=C/c2ccccc2)n(-c2ccccc2)n1`, the EC50 in experiment [1] is 14.2 µM (active); in experiment [4], 2.47 µM (active); in experiment [2] it was 13.7 µM (active); in experiment [3] it was 15.7 µM (active); at Streptokinase A it was > 150 µM (not active); with Streptococcus, 33.9 µM (active).
Regarding `CN(C)c1ccc(/N=N\c2cccc3ccoc23)cc1`, the results for the AC50 at Cytochrome P450 2D6 and on Cytochrome P450 3A4 were 3.16 µM (inconclusive) and 3.98 µM (inconclusive), respectively.
Consider `Cc1ccc(C(=O)CSc2nc(O)c3ccccc3n2)cc1`, for which, in the experiment on H9c2, the IC50 was > 79 µM (inactive).
For `Cc1cccc(OCCCC(=O)Nc2ccc(N3CCCCC3)cc2)c1`, the AC50 was 0.355 µM (inconclusive) on Cytochrome P450 2C19 and 7.08 µM (inconclusive) on Cytochrome P450 3A4.
For `Cc1noc(C)c1C(=O)N1CCC2(CCCN(c3ccncc3)C2)CC1`, on Cytochrome P450 3A4, the half-maximal activity concentration (AC50) is 31.6 µM (inconclusive).
For `O=C(CSc1nc(O)c2ccccc2n1)N1CCCCC1`, the IC50 in the experiment on H9c2 is 10.5 µM (active).
Take `COc1ccc(NC(=O)CSc2nc(N)c3cc4c(nc3n2)CCCC4)cc1`: the EC50 in experiment [5] is 53.3 µM (active).
Consider `O=C(Nc1cccc2ccccc12)C12CC3CC(C1)CC(n1cnc([N+](=O)[O-])n1)(C3)C2`, for which the figures for the EC50 in [1], in [2] and in [3] were 12.9 µM (active), 12.4 µM (active) and > 60 µM (not active), respectively.
With `ON=C1c2ccccc2-c2ccccc21`, the EC50 in experiment [5] was > 260 µM (inactive).
As to `COc1ccc(C(C)(C)C)cc1NC(=O)c1cncc(Br)c1`, the AC50 at Cytochrome P450 2C19 was 10 µM (inconclusive); at Cytochrome P450 3A4, 11.2 µM (inconclusive).
Turning to `C1=C(c2ccccc2)CCN(c2nc3ccccc3n3cnnc23)C1`, in the experiment with H9c2, the IC50 was > 79 µM (inactive).
Turning to `Cc1cc(N2CCN(C)CC2)ccc1NC(=O)c1cccc(S(=O)(=O)N2CCc3ccccc3C2)c1`, the EC50 in [1] is 9.2 µM (active); in experiment [2] it was > 120 µM (not active); in [3], > 120 µM (not active); in experiment [6] it was 1.43 µM (active); in experiment [7], 8.5 µM (active).
Consider `O=C(CSc1nnc(-c2ccccc2)c(-c2ccccc2)n1)N1CCc2ccccc21`, for which, in experiment [5], the EC50 was > 260 µM (inactive).
Consider `O=C(CN(Cc1ccco1)Cc1ccco1)Nc1cc(S(=O)(=O)N2CCCCC2)ccc1Cl`, for which, in the experiment on INS1, the AC50 was 7.48 µM (active).
Regarding `C=C(C)CN1CC[C@@]23c4c5ccc(O)c4O[C@H]2c2[nH]c4ccccc4c2C[C@]3(O)[C@@H]1C5`, the AC50 was 3.16 µM (inconclusive) at Cytochrome P450 2C19 and 31.6 µM (inconclusive) on Cytochrome P450 3A4.
In the case of `CO[C@H]1COC(=O)[C@H](C)COC(=O)[C@@H](Cc2ccccc2)NC(=O)C/C=C\[C@H]1C`, at Cytochrome P450 3A4, the AC50 is 6.31 µM (inconclusive).
As to `CCCCCSc1nc2c(c(=O)[nH]c(=O)n2C)n1C(C)C`, the EC50 is > 120 µM (not active) in experiment [1], 16.5 µM (active) in [2] and 12.5 µM (active) in experiment [3].
`Cc1cnc(CNc2ccnc(-c3ccccc3Cl)n2)cn1`: the AC50 at Cytochrome P450 2C19 was 39.8 µM (inconclusive); at Cytochrome P450 3A4, 10 µM (inconclusive).
Consider `Cc1cccc(OC2CCN(Cc3nc(CC4CC4)no3)CC2)c1`, for which the EC50 is > 120 µM (not active) in experiment [1], > 120 µM (not active) in experiment [2] and 55.7 µM (active) in experiment [3].
With `COc1ccc(-c2nc3cnc(N(C)C)nc3n(Cc3cccs3)c2=O)cc1`, the AC50 on Cytochrome P450 3A4 is 12.6 µM (inconclusive).
For the compound `CC(C)c1nc2oc3c(NCc4ccccn4)ncnc3c2c2c1COC(C)(C)C2`, the EC50 in experiment [1] is 33 µM (active); in experiment [2], > 120 µM (not active); in experiment [3], 16.7 µM (active).
For `COc1ccc(CCNc2nc(-c3cccnc3)nc3ccccc23)cc1OC`, the IC50 with H9c2 is > 79 µM (inactive).
As for `O=C(Nc1ccc(C(=O)N2CCOCC2)cc1)c1cnn2c(C(F)F)cc(-c3ccccc3)nc12`, in [5], the EC50 was > 260 µM (inactive). Also, the IC50 in the experiment with H9c2 is > 79 µM (inactive).
In the case of `NN=C(S)Nc1ccc(OC(F)(F)F)cc1`, the AC50 with INS1 is > 260 µM (inactive).
As to `COc1ccc(C2C(C#N)=C(N)N(c3ccccc3)C3=C2C(=O)CCC3)cc1Cn1cc([N+](=O)[O-])cn1` (stereo not given), the figures for the EC50 in [1], in [2] and in experiment [3] were 13.2 µM (active), 17.1 µM (active) and 105 µM (active), respectively.
For the compound `O=C(COC(=O)Cn1[nH]c(=O)c2ccccc2c1=O)NNC(=O)c1ccccc1`, the IC50 with H9c2 is > 79 µM (inactive).
On to `Oc1cc(O)cc(/C=C\c2ccc(O)c(O)c2)c1`, for which the AC50 on Cytochrome P450 3A4 is 20 µM (inconclusive); on Cytochrome P450 2C9 it was 31.6 µM (inconclusive).
On to `CC(C)(C)C(=O)NC(Nc1cccc2cccnc12)C(Cl)(Cl)Cl` (stereo not given), for which the AC50 with INS1 is 23.6 µM (active); on Cytochrome P450 2D6, 15.8 µM (inconclusive); at Cytochrome P450 3A4, 7.08 µM (inconclusive).
As to `c1ccc2c(c1)nnn1c3ccccc3nc21`, the EC50 in experiment [5] is > 260 µM (inactive).
On the same count and under the same terms, to `Cc1cc(=O)oc2c(C)c(OC(C)C(=O)NCC(O)c3ccccc3)ccc12` (stereo not given) belongs > 260 µM (inactive); to `O=C(CN1C(=O)/C(=C\c2cccc(Cl)c2)Sc2ccccc21)NCCCN1CCOCC1`, 245 µM (active).
Consider `CCN(CC)S(=O)(=O)c1ccc(C(=O)NN(C)C2=NS(=O)(=O)c3ccccc32)cc1`, for which the EC50 in experiment [5] is > 260 µM (inactive).
Consider `O=C(C[C@H]1C/C=C\CC[C@H](Cc2ccc(F)cc2)C(=O)O[C@H](c2ccccc2)CNC1=O)N[C@H](CO)Cc1ccccc1`, for which the IC50 in the experiment on H9c2 was 25.3 µM (active).
Take `CCC(CO)NCC#Cc1ccccc1` (stereo not given): the EC50 in [5] was > 260 µM (inactive).
With `Cc1cccc(N(NC(=O)C(C)(C)O)C(=O)c2ccccc2)c1`, the AC50 on Cytochrome P450 3A4 is 17.8 µM (inconclusive); on Cytochrome P450 2C9, 39.8 µM (inconclusive).
For the compound `Cc1ccc(C)c(C(=O)COC(=O)Cn2[nH]c(=O)c3ccccc3c2=O)c1`, in the experiment with H9c2, the IC50 was 63.5 µM (inactive).
On the same count and under the same terms, to `Cc1cc(NC(=O)COC(=O)Cn2[nH]c(=O)c3ccccc3c2=O)c([N+](=O)[O-])cc1C` belongs 31.7 µM (inactive).
In the case of `COc1cc(/C=N/NC(=O)c2ccncc2)ccc1OC(=O)c1ccccc1Cl`, the IC50 in the experiment on H9c2 is > 79 µM (inactive).
Consider `CCOC(=O)c1ccc(-c2ccc3ncnc(NCc4csc(C)n4)c3c2)o1`, for which, in the experiment with H9c2, the IC50 was > 79 µM (inactive).
With `NC[C@@H]1O[C@H](C23CC4CC(CC(C4)C2)C3)Cc2c1ccc(O)c2O`, the AC50 on Cytochrome P450 3A4 was 20 µM (inconclusive) and 31.6 µM (inconclusive).
With `COc1cc(/C=N/NC(=O)c2cccnc2)ccc1OC(=O)c1cc(OC)c(OC)c(OC)c1`, the AC50 in the experiment on INS1 is 1.1 µM (active).
Consider `Cc1cccc(N/N=C(\C=O)C(=O)c2ccc(Br)cc2)c1`, for which, in experiment [5], the EC50 is > 260 µM (inactive).
